Results taken from the NIST ThermoML archive (doi:10.1016/j.jct.2016.01.021).

Assay: xn = mol fraction of the nth substance listed
Conditions: 100 kPa, Liquid; for viscosity: Capillary tube (Ostwald / Ubbelohde) method; for mass density: Vibrating tube method

CCCCCCCCCCCC(=O)OCC [ethyl dodecanoate] + CCCCCCCCCCCCCCCC
Conditions | mass density [kg/m3] | viscosity [mPa·s]
298.15 K, x2 = 0 | 858.19 | 3.015
298.15 K, x2 = 0.1 | 848.2 | 2.977
298.15 K, x2 = 0.2 | 838.49 | 2.954
298.15 K, x2 = 0.3 | 829.03 | 2.935
298.15 K, x2 = 0.4 | 819.83 | 2.925
298.15 K, x2 = 0.5 | 810.88 | 2.923
298.15 K, x2 = 0.6 | 802.18 | 2.933
298.15 K, x2 = 0.7 | 793.76 | 2.952
298.15 K, x2 = 0.7999 | 785.59 | 2.98
298.15 K, x2 = 0.9 | 777.65 | 3.024
303.15 K, x2 = 0 | 854.3 | 2.704
303.15 K, x2 = 0.1 | 844.34 | 2.673
303.15 K, x2 = 0.2 | 834.69 | 2.65
303.15 K, x2 = 0.3 | 825.27 | 2.632
303.15 K, x2 = 0.4 | 816.11 | 2.624
303.15 K, x2 = 0.5 | 807.21 | 2.623
303.15 K, x2 = 0.6 | 798.55 | 2.629
303.15 K, x2 = 0.7 | 790.18 | 2.645
303.15 K, x2 = 0.7999 | 782.04 | 2.668
303.15 K, x2 = 0.9 | 774.14 | 2.706
308.15 K, x2 = 0 | 850.4 | 2.439
308.15 K, x2 = 0.1 | 840.49 | 2.412
308.15 K, x2 = 0.2 | 830.88 | 2.392
308.15 K, x2 = 0.3 | 821.51 | 2.377
308.15 K, x2 = 0.4 | 812.4 | 2.368
308.15 K, x2 = 0.5 | 803.54 | 2.367
308.15 K, x2 = 0.6 | 794.93 | 2.372
308.15 K, x2 = 0.7 | 786.59 | 2.384
308.15 K, x2 = 0.7999 | 778.5 | 2.403
308.15 K, x2 = 0.9 | 770.64 | 2.433
313.15 K, x2 = 0 | 846.5 | 2.213
313.15 K, x2 = 0.1 | 836.63 | 2.188
313.15 K, x2 = 0.2 | 827.07 | 2.169
313.15 K, x2 = 0.3 | 817.75 | 2.155
313.15 K, x2 = 0.4 | 808.68 | 2.149
313.15 K, x2 = 0.5 | 799.87 | 2.146
313.15 K, x2 = 0.6 | 791.3 | 2.15
313.15 K, x2 = 0.7 | 783.01 | 2.16
313.15 K, x2 = 0.7999 | 774.96 | 2.179
313.15 K, x2 = 0.9 | 767.14 | 2.203
318.15 K, x2 = 0 | 842.6 | 2.016
318.15 K, x2 = 0.1 | 832.77 | 1.996
318.15 K, x2 = 0.2 | 823.26 | 1.978
318.15 K, x2 = 0.3 | 813.99 | 1.966
318.15 K, x2 = 0.4 | 804.97 | 1.959
318.15 K, x2 = 0.5 | 796.19 | 1.957
318.15 K, x2 = 0.6 | 787.68 | 1.959
318.15 K, x2 = 0.7 | 779.43 | 1.967
318.15 K, x2 = 0.7999 | 771.42 | 1.981
318.15 K, x2 = 0.9 | 763.64 | 2.003
323.15 K, x2 = 0 | 838.7 | 1.846
323.15 K, x2 = 0.1 | 828.91 | 1.832
323.15 K, x2 = 0.2 | 819.45 | 1.813
323.15 K, x2 = 0.3 | 810.22 | 1.801
323.15 K, x2 = 0.4 | 801.25 | 1.795
323.15 K, x2 = 0.5 | 792.52 | 1.793
323.15 K, x2 = 0.6 | 784.05 | 1.795
323.15 K, x2 = 0.7 | 775.84 | 1.8
323.15 K, x2 = 0.7999 | 767.88 | 1.813
323.15 K, x2 = 0.9 | 760.14 | 1.833

CCCCCCCC(=O)OCC [ethyl octanoate] + CCCCCCCCCCCCCCCC
Conditions | mass density [kg/m3] | viscosity [mPa·s]
298.15 K, x2 = 0 | 862.64 | 1.428
298.15 K, x2 = 0.1 | 848.72 | 1.539
298.15 K, x2 = 0.2 | 836.2 | 1.651
298.15 K, x2 = 0.3 | 824.94 | 1.776
298.15 K, x2 = 0.4 | 814.77 | 1.916
298.15 K, x2 = 0.4999 | 805.52 | 2.065
298.15 K, x2 = 0.6 | 797.09 | 2.229
298.15 K, x2 = 0.7 | 789.38 | 2.408
298.15 K, x2 = 0.8 | 782.33 | 2.608
298.15 K, x2 = 0.9 | 775.88 | 2.84
303.15 K, x2 = 0 | 858.34 | 1.313
303.15 K, x2 = 0.1 | 844.55 | 1.407
303.15 K, x2 = 0.2 | 832.14 | 1.513
303.15 K, x2 = 0.3 | 820.97 | 1.623
303.15 K, x2 = 0.4 | 810.9 | 1.744
303.15 K, x2 = 0.4999 | 801.74 | 1.875
303.15 K, x2 = 0.6 | 793.39 | 2.019
303.15 K, x2 = 0.7 | 785.75 | 2.175
303.15 K, x2 = 0.8 | 778.76 | 2.348
303.15 K, x2 = 0.9 | 772.36 | 2.543
308.15 K, x2 = 0 | 854.04 | 1.211
308.15 K, x2 = 0.1 | 840.37 | 1.296
308.15 K, x2 = 0.2 | 828.07 | 1.387
308.15 K, x2 = 0.3 | 817.01 | 1.49
308.15 K, x2 = 0.4 | 807.03 | 1.596
308.15 K, x2 = 0.4999 | 797.95 | 1.712
308.15 K, x2 = 0.6 | 789.68 | 1.837
308.15 K, x2 = 0.7 | 782.11 | 1.974
308.15 K, x2 = 0.8 | 775.18 | 2.124
308.15 K, x2 = 0.9 | 768.84 | 2.291
313.15 K, x2 = 0 | 849.72 | 1.121
313.15 K, x2 = 0.1 | 836.18 | 1.197
313.15 K, x2 = 0.2 | 824 | 1.279
313.15 K, x2 = 0.3 | 813.04 | 1.371
313.15 K, x2 = 0.4 | 803.16 | 1.467
313.15 K, x2 = 0.4999 | 794.16 | 1.57
313.15 K, x2 = 0.6 | 785.97 | 1.68
313.15 K, x2 = 0.7 | 778.47 | 1.801
313.15 K, x2 = 0.8 | 771.61 | 1.933
313.15 K, x2 = 0.9 | 765.33 | 2.083
318.15 K, x2 = 0 | 845.39 | 1.042
318.15 K, x2 = 0.1 | 831.98 | 1.11
318.15 K, x2 = 0.2 | 819.92 | 1.185
318.15 K, x2 = 0.3 | 809.06 | 1.267
318.15 K, x2 = 0.4 | 799.27 | 1.351
318.15 K, x2 = 0.4999 | 790.37 | 1.444
318.15 K, x2 = 0.6 | 782.25 | 1.543
318.15 K, x2 = 0.7 | 774.83 | 1.65
318.15 K, x2 = 0.8 | 768.04 | 1.766
318.15 K, x2 = 0.9 | 761.81 | 1.897
323.15 K, x2 = 0 | 841.06 | 0.971
323.15 K, x2 = 0.1 | 827.77 | 1.034
323.15 K, x2 = 0.2 | 815.83 | 1.101
323.15 K, x2 = 0.3 | 805.08 | 1.172
323.15 K, x2 = 0.4 | 795.39 | 1.251
323.15 K, x2 = 0.4999 | 786.56 | 1.334
323.15 K, x2 = 0.6 | 778.53 | 1.422
323.15 K, x2 = 0.7 | 771.18 | 1.517
323.15 K, x2 = 0.8 | 764.46 | 1.62
323.15 K, x2 = 0.9 | 758.3 | 1.736

CCCCCCCCCC(=O)OCC [ethyl decanoate] + CCCCCCCCCCCCCCCC
Conditions | mass density [kg/m3] | viscosity [mPa·s]
298.15 K, x2 = 0 | 860.05 | 2.115
298.15 K, x2 = 0.1 | 848.4 | 2.169
298.15 K, x2 = 0.2 | 837.44 | 2.23
298.15 K, x2 = 0.3 | 827.17 | 2.298
298.15 K, x2 = 0.4 | 817.5 | 2.374
298.15 K, x2 = 0.5 | 808.41 | 2.46
298.15 K, x2 = 0.6 | 799.81 | 2.556
298.15 K, x2 = 0.7 | 791.69 | 2.664
298.15 K, x2 = 0.8 | 783.98 | 2.785
298.15 K, x2 = 0.9 | 776.78 | 2.923
303.15 K, x2 = 0 | 855.99 | 1.919
303.15 K, x2 = 0.1 | 844.41 | 1.966
303.15 K, x2 = 0.2 | 833.53 | 2.019
303.15 K, x2 = 0.3 | 823.32 | 2.079
303.15 K, x2 = 0.4 | 813.71 | 2.144
303.15 K, x2 = 0.5 | 804.69 | 2.219
303.15 K, x2 = 0.6 | 796.15 | 2.303
303.15 K, x2 = 0.7 | 788.08 | 2.396
303.15 K, x2 = 0.8 | 780.42 | 2.501
303.15 K, x2 = 0.9 | 773.27 | 2.618
308.15 K, x2 = 0 | 851.92 | 1.75
308.15 K, x2 = 0.1 | 840.42 | 1.79
308.15 K, x2 = 0.2 | 829.61 | 1.837
308.15 K, x2 = 0.3 | 819.48 | 1.89
308.15 K, x2 = 0.4 | 809.93 | 1.948
308.15 K, x2 = 0.5 | 800.96 | 2.013
308.15 K, x2 = 0.6 | 792.49 | 2.086
308.15 K, x2 = 0.7 | 784.47 | 2.167
308.15 K, x2 = 0.8 | 776.87 | 2.257
308.15 K, x2 = 0.9 | 769.76 | 2.358
313.15 K, x2 = 0 | 847.85 | 1.603
313.15 K, x2 = 0.1 | 836.43 | 1.639
313.15 K, x2 = 0.2 | 825.69 | 1.68
313.15 K, x2 = 0.3 | 815.62 | 1.726
313.15 K, x2 = 0.4 | 806.15 | 1.777
313.15 K, x2 = 0.5 | 797.24 | 1.835
313.15 K, x2 = 0.6 | 788.82 | 1.899
313.15 K, x2 = 0.7 | 780.86 | 1.97
313.15 K, x2 = 0.8 | 773.31 | 2.049
313.15 K, x2 = 0.9 | 766.26 | 2.137
318.15 K, x2 = 0 | 843.77 | 1.474
318.15 K, x2 = 0.1 | 832.43 | 1.506
318.15 K, x2 = 0.2 | 821.76 | 1.544
318.15 K, x2 = 0.3 | 811.77 | 1.585
318.15 K, x2 = 0.4 | 802.35 | 1.63
318.15 K, x2 = 0.5 | 793.51 | 1.68
318.15 K, x2 = 0.6 | 785.15 | 1.737
318.15 K, x2 = 0.7 | 777.25 | 1.799
318.15 K, x2 = 0.8 | 769.76 | 1.869
318.15 K, x2 = 0.9 | 762.74 | 1.947
323.15 K, x2 = 0 | 839.69 | 1.362
323.15 K, x2 = 0.1 | 828.42 | 1.39
323.15 K, x2 = 0.2 | 817.83 | 1.423
323.15 K, x2 = 0.3 | 807.9 | 1.46
323.15 K, x2 = 0.4 | 798.56 | 1.501
323.15 K, x2 = 0.5 | 789.78 | 1.546
323.15 K, x2 = 0.6 | 781.48 | 1.595
323.15 K, x2 = 0.7 | 773.64 | 1.651
323.15 K, x2 = 0.8 | 766.2 | 1.712
323.15 K, x2 = 0.9 | 759.24 | 1.779
